These results are taken from patent US11753407B2, “Compounds for treating spinal muscular atrophy” (PTC Therapeutics, Inc., priority 2012, dated 2023).

Assay [1] has as its system SMN2 minigene mRNA (SMN2-A minigene) in HEK293H cells. In words: SMN2 minigene mRNA splicing RT-qPCR assay in cultured cells. As to conditions: Homo sapiens, HEK293-H; concentration increasing full length SMN2 mRNA 1.5-fold relative to vehicle-treated cells; HEK293H cells with SMN2-A minigene, 24 hours, 7-point concentration data; read-out: EC1.5x for production of full length SMN2 mRNA. Type of assay: cell-based, human. On the procedure:
The reverse transcription-quantitative PCR-based (RT-qPCR) assay is used to quantify the level of the full length SMN2 minigene mRNA containing SMN2 exon 7 in a HEK293H cell line stably transfected with said minigene and treated with a test compound.
Protocol. HEK293H cells stably transfected with the SMN2-A minigene construct described above (10,000 cells/well) are seeded in 200 μL of cell culture medium (DMEM plus 10% FBS, with 200 μg/mL hygromycin) in 96-well flat-bottom plates and the plate is immediately swirled to ensure proper dispersal of cells, forming an even monolayer of cells. Cells are allowed to attach for at least 4-6 hours. Test compounds are serially diluted 3.16-fold in 100% DMSO to generate a 7-point concentration curve. A solution of test compound (1 μL, 200× in DMSO) is added to each cell-containing well and the plate is incubated for 24 hours in a cell culture incubator (37° C., 5% CO2, 100% relative humidity). 2 replicates are prepared for each test compound concentration. The cells are then lysed in Cells-To-Ct lysis buffer and the lysate is stored at −80° C.
Primer SMN Forward A (SEQ ID NO. 1) hybridizes to a nucleotide sequence in exon 7 (nucleotide 22 to nucleotide 40), primer SMN Reverse A (SEQ ID NO. 2) hybridizes to a nucleotide sequence in the coding sequence of Firefly luciferase, SMN Probe A (SEQ ID NO. 3) hybridizes to a nucleotide sequence in exon 7 (nucleotide 50 to nucleotide 54) and exon 8 (nucleotide 1 to nucleotide 21). The combination of these three oligonucleotides detects only SMN1 or SMN2 minigenes (RT-qPCR) and will not detect endogenous SMN1 or SMN2 genes.
The SMN forward and reverse primers are used at final concentrations of 0.4 μM. The SMN probe is used at a final concentration of 0.15 μM. The GAPDH primers are used at final concentrations of 0.2 μM and the probe at 0.15 μM.
The SMN2-minigene GAPDH mix (15 μL total volume) is prepared by combining 7.5 μL of 2× RT-PCR buffer, 0.4 μL of 25× RT-PCR enzyme mix, 0.75 μL of 20× GAPDH primer-probe mix, 4.0075 μL of water, 2 μL of 10-fold diluted cell lysate, 0.06 μL of 100 μM SMN forward primer, 0.06 μL of 100 μM SMN reverse primer, and […].
PCR is carried out at the following temperatures for the indicated time: Step 1: 48° C. (15 min); Step 2: 95° C. (10 min); Step 3: 95° C. (15 sec); Step 4: 60° C. (1 min); then repeat Steps 3 and 4 for a total of 40 cycles.
Each reaction mixture contains both SMN2-A minigene and GAPDH primers/probe sets (multiplex design), allowing simultaneous measurement of the levels of two transcripts.
Two SMN spliced products are generated from the SMN2 minigene. The first spliced product containing exon 7, corresponding to full length SMN2 mRNA, is referred to herein using the term “SMN2 minigene FL.” The second spliced product lacking exon 7 is referred to herein using the term “SMN2 minigene Δ7.”
The increase of SMN2 minigene FL mRNA relative to that in cells treated with vehicle control is determined from real-time PCR data using a modified ΔΔCt method (as described in Livak and Schmittgen, Methods, 2001, 25:402-8). The amplification efficiency (E) is calculated from the slope of the amplification curve for SMN2 minigene FL and GAPDH individually. The abundances of SMN2 minigene FL and GAPDH are then calculated as (1+E)^−Ct, where Ct is the threshold value for each amplicon. The abundance of SMN2 minigene FL is normalized to GAPDH abundance. The normalized SMN2 minigene FL abundance from test compound-treated samples is then divided by normalized SMN2 minigene FL abundance from vehicle-treated cells to determine the level of SMN2 FL mRNA relative to vehicle control.
For compounds of Formula (I) or a form thereof disclosed herein, Table 4 provides the […] for production of full length SMN2 mRNA that was obtained from the 7-point concentration data generated for each test compound according to the procedure of Biological Example 2. […]
(In general: Quantitative PCR measures a nucleic acid by following its amplification.)

For assay [2], the system named is Smn protein in SMA patient fibroblast cells (GM03813). The assay can be described thus: Smn protein assay in cultured cells (SMN HTRF). Type of assay: cell-based, human. Conditions: SMA patient fibroblast cells, 48 hours; for EC1.5x for Smn protein expression: 7-point concentration curve, SMN HTRF, concentration producing 1.5 times Smn protein vs DMSO vehicle control; for maximum fold (Fold) increase of Smn protein: 7-point concentration data, fold relative to vehicle control. The procedure: The SMN HTRF (homogeneous time resolved fluorescence) assay is used to quantify the level of Smn protein in SMA patient fibroblast cells treated with test compounds.
Protocol. Cells are thawed and cultured in DMEM-10% FBS for 72 hours. Cells are trypsinized, counted and re-suspended to a concentration of 25,000 cells/mL in DMEM-10% FBS. The cell suspension is plated at 5,000 cells per well in a 96 well microtiter plate and incubated for 3 to 5 hours. […] Test compounds are serially diluted 3.16-fold in 100% DMSO to generate a 7-point concentration curve. 1 μL of test compound solution is transferred to cell-containing wells and cells are incubated for 48 hours in a cell culture incubator (37° C., 5% CO2, 100% relative humidity). Triplicate samples are set up for each test compound concentration. After 48 hours, the supernatant is removed from the wells and 25 μL of the RIPA lysis buffer, containing protease inhibitors, is added to the wells and incubated with shaking at room temperature for 1 hour. 25 μL of the diluent is added and then 35 μL of the resulting lysate is transferred to a 384-well plate, where each well contains 5 μL of the antibody solution (1:100 dilution of anti-SMN d2 and anti-SMN kryptate in SMN reconstitution buffer). The plate is centrifuged for 1 minute to bring the solution to the bottom of the wells, then incubated overnight at room temperature. Fluorescence for each well of the plate at 665 nm and 620 nm is measured on an EnVision multilabel plate reader (Perkin-Elmer).
The normalized fluorescence signal is calculated for each sample, Blank and vehicle control well by dividing the signal at 665 nm by the signal at 620 nm. Normalizing the signal accounts for possible fluorescence quenching due to the matrix effect of the lysate. The ΔF value (a measurement of Smn protein abundance as a percent value) for each sample well is calculated by subtracting the normalized average fluorescence for the Blank control wells from the normalized fluorescence for each sample well, then dividing this difference by the normalized average fluorescence for the Blank control wells and multiplying the resulting value by 100. The ΔF value for each sample well represents the Smn protein abundance from test compound-treated samples. The ΔF value for each sample well is divided by the ΔF value for the vehicle control wells to calculate the fold increase in Smn protein abundance relative to the vehicle control.
For compounds of Formula (I) or a form thereof disclosed herein, Table 9 provides the EC1.5× for Smn protein expression that was obtained from the 7-point concentration data generated for each test compound according to the procedure of Biological Example 7. The term “EC1.5× for Smn protein expression” is defined as that concentration of test compound that is effective in producing 1.5 times the amount of Smn protein in an SMA patient fibroblast cell compared to the amount produced from the DMSO vehicle control. An EC1.5× for Smn protein expression between >3 μM and ≤10 μM is indicated by one star (*), an EC1.5× between >1 μM and ≤3 μM is indicated by two stars (**), an EC1.5× between >0.3 μM and ≤1 μM is indicated by three stars (***) and an EC1.5x≤0.3 μM is indicated by four stars (****).
For compounds of Formula (I) or a form thereof disclosed herein, Table 10 provides the maximum fold (Fold) increase of Smn protein that was obtained from the 7-point concentration data generated for each test compound according to the procedure of Biological Example 7. A maximum fold increase of ≤1.2 is indicated by one star (*), a fold increase between >1.2 and ≤1.35 is indicated by two stars (**), a fold increase between >1.35 and ≤1.5 is indicated by three stars (***), a fold increase between >1.5 and ≤1.65 is indicated by four stars (****) and a fold increase >1.65 is indicated by five stars (*****).
(In general: TR-FRET usually uses a lanthanide donor and a delayed reading to cut background.)

In the case of `COc1ccc(-c2cc(=O)n3cc(OC4CCN(C)CC4)ccc3n2)cc1OC` [Compound 235, 2-(3,4-dimethoxyphenyl)-7-[(1-methylpiperidin-4-yl)oxy]-4H-pyrido[1,2-a]pyrimidin-4-one], the EC (1.5-fold increase) in assay [1] is 0.3 to 1 µM. Moreover, in assay [2], the “EC1.5x for Smn protein expression” value is “** (an EC1.5× between >1 μM and ≤3 μM is indicated by two stars (**))”; the “maximum fold (Fold) increase of Smn protein” value (shortened to “maximum fold (Fold) increase”) was “**** (a fold increase between >1.5 and ≤1.65 is indicated by four stars (****))”.

Take `Cc1nc2ccc(-c3cc(=O)n4cc(N5CCC(N)CC5)ccc4n3)cc2o1` [Compound 242, 7-(4-aminopiperidin-1-yl)-2-(2-methyl-1,3-benzoxazol-6-yl)-4H-pyrido[1,2-a]pyrimidin-4-one]: in assay [1], the EC (1.5-fold increase) was less than 0.1 µM. Besides, in assay [2], the “EC1.5x for Smn protein expression” value is given as “**** (an EC1.5x≤0.3 μM is indicated by four stars (****))”; the “maximum fold (Fold) increase” value was “**** (a fold increase between >1.5 and ≤1.65 is indicated by four stars (****))”.

With `Cc1nc2ccc(-c3cc(=O)n4cc(N5C[C@H]6CNC[C@H]6C5)ccc4n3)cc2o1` [Compound 243, 7-[(3aR,6aS)-hexahydropyrrolo[3,4-c]pyrrol-2(1H)-yl]-2-(2-methyl-1,3-benzoxazol-6-yl)-4H-pyrido[1,2-a]pyrimidin-4-one], in assay [1], the EC (1.5-fold increase) is less than 0.1 µM. Moreover, in assay [2], the “EC1.5x for Smn protein expression” value is recorded as “**** (an EC1.5x≤0.3 μM is indicated by four stars (****))”; the “maximum fold (Fold) increase” value is “**** (a fold increase between >1.5 and ≤1.65 is indicated by four stars (****))”.

As to `Cc1cn2cc(-c3cc(=O)n4cc(N5CCN(C)CC5)ccc4n3)cc(F)c2n1` [Compound 269, 2-(8-fluoro-2-methylimidazo[1,2-a]pyridin-6-yl)-7-(4-methylpiperazin-1-yl)-4H-pyrido[1,2-a]pyrimidin-4-one], the EC (1.5-fold increase) in assay [1] was less than 0.1 µM. In assay [2], the “EC1.5x for Smn protein expression” value is “**** (an EC1.5x≤0.3 μM is indicated by four stars (****))” and the “maximum fold (Fold) increase” value is “***** (a fold increase >1.65 is indicated by five stars (*****))”.

As for `Cc1cn2cc(-c3cc(=O)n4cc(N5CCN[C@H](C)C5)ccc4n3)cc(F)c2n1` [Compound 270, 2-(8-fluoro-2-methylimidazo[1,2-a]pyridin-6-yl)-7-[(3R)-3-methylpiperazin-1-yl]-4H-pyrido[1,2-a]pyrimidin-4-one], the EC (1.5-fold increase) in assay [1] was less than 0.1 µM. Also, in assay [2], the “EC1.5x for Smn protein expression” value was “**** (an EC1.5x≤0.3 μM is indicated by four stars (****))”; the “maximum fold (Fold) increase” value was “**** (a fold increase between >1.5 and ≤1.65 is indicated by four stars (****))”.

Regarding `Cc1cn2cc(-c3cc(=O)n4cc(N5CCC(N)CC5)ccc4n3)cc(F)c2n1` [Compound 273, 7-(4-aminopiperidin-1-yl)-2-(8-fluoro-2-methylimidazo[1,2-a]pyridin-6-yl)-4H-pyrido[1,2-a]pyrimidin-4-one], the EC (1.5-fold increase) in assay [1] was less than 0.1 µM. In assay [2], the “EC1.5x for Smn protein expression” value is on record as “**** (an EC1.5x≤0.3 μM is indicated by four stars (****))” and the “maximum fold (Fold) increase” value was “***** (a fold increase >1.65 is indicated by five stars (*****))”.

`Cc1nc2ccc(-c3cc(=O)n4cc(N5CCC(N(C)C)CC5)ccc4n3)cc2s1` [Compound 285, 7-[4-(dimethylamino)piperidin-1-yl]-2-(2-methyl-1,3-benzothiazol-6-yl)-4H-pyrido[1,2-a]pyrimidin-4-one]: in assay [1], the EC (1.5-fold increase) was less than 0.1 µM. In assay [2], the “EC1.5x for Smn protein expression” value was “**** (an EC1.5x≤0.3 μM is indicated by four stars (****))” and the “maximum fold (Fold) increase” value is “***** (a fold increase >1.65 is indicated by five stars (*****))”.

In the case of `Cc1nc2ccc(-c3cc(=O)n4cc(C5=CCNCC5)ccc4n3)cc2o1` [Compound 302, 2-(2-methyl-1,3-benzoxazol-6-yl)-7-(1,2,3,6-tetrahydropyridin-4-yl)-4H-pyrido[1,2-a]pyrimidin-4-one], the EC (1.5-fold increase) in assay [1] is less than 0.1 µM. Also, in assay [2], the “EC1.5x for Smn protein expression” value is listed as “**** (an EC1.5x≤0.3 μM is indicated by four stars (****))” and the “maximum fold (Fold) increase” value is given as “***** (a fold increase >1.65 is indicated by five stars (*****))”.
